Assay: solubility of nateglinide in crystallisation solvents
Assay type: physicochemical
Source text: First solvents in which nateglinide is readily soluble, i.e., in amounts of at least 1% by weight at an ambient temperature, include lower alcohols, such as methanol, ethanol and isopropanol. Polar solvents such as acetone, tetrahydrofuran, dioxane and dichloromethane can also be effective when used as the first solvent. Second solvents in which nateglinide is only poorly soluble, i.e., in amounts of 0.01% by weight or less, include water, hexane, heptane and diethyl ether. Where a mixed solvent is employed as the first solvent, a mixture of ethanol and toluene or a mixture of methanol and ethyl acetate is effective preferably in combination with water as the second solvent, and more preferably with water containing from about 0.5 to about 3% by weight of hydroxypropylmethylcellulose. The amount of nateglinide in the solvent ranges preferably from 1 to 50% by weight of the resulting mixture. If the amount of nateglinide is more than 50% by weight then the slurry properties of the initial suspension are poor and it will be difficult to agitate the mixture and dissolve the solid. On the other hand, it is not efficient in terms of the volume of the solvent required to use less than 1% of nateglinide by weight. […]

For `CC(C)[C@H]1CC[C@H](C(=O)N[C@H](Cc2ccccc2)C(=O)O)CC1` [nateglinide, N-(trans-4-isopropylcyclohexylcarbonyl)-D-phenylalanine], the “amount in which nateglinide is readily soluble (first solvents)” value (at an ambient temperature, methanol, ethanol, isopropanol, also acetone, tetrahydrofuran, dioxane, dichloromethane) was “at least 1 % by weight” and the “amount in which nateglinide is only poorly soluble (second solvents)” value (water, hexane, heptane and diethyl ether) was no more than 0.01 % by weight.
